Source: PMC13053910, “Covalent Protein Inhibitors via Tyrosine and Tryptophan Conjugation with Cyclic Imine Mannich Electrophiles” (Angewandte Chemie (International Ed. in English), 2026)
Where two headings read alike, the source gives them in different places.

Key:
[1] = tested on: HOXA9 gene expression in THP1 cells; experiment: qRT-PCR analysis of HOXA9 gene expression in THP1 cells; type: cell-based, Human; details: 10 µM, 48 h
Procedure: Figure 7 Cellular activity of covalent, cyclic imine inhibitors to CBX8. a) qRT‐PCR analysis of HOXA9 gene expression in THP1 cells after 48 h of compound treatment at the indicated dose. N = 3. Error bars represent SD. Statistical significance was calculated using Student's t‐test. ** = p < 0.01, **** = p < 0.0001, b) qRT‐PCR analysis of HOXA9 gene expression in THP1 cells treated with increasing doses of compound for 48 h. N = 3. Error bars represent SD.
Figure S24. Cellular activity of covalent, cyclic imine inhibitors to CBX8. qRT-PCR analysis of HOXA9 gene expression in THP1 cells after 48 h of compound treatment at the indicated dose. N = 3. Error bars represent s.d. Statistical significance determined by Student’s T test. * = p <0.05, ** = p < 0.01, *** = p < 0.001, **** = p < 0.0001.
2.4 Cell Culture Cell line, Media and Culture Conditions HEK293T cells were cultured in Dubecco’s Modified Essential Media (DMEM), 10% fetal bovine serum (FBS, JR Scientific), 1% glutagro (Corning), 1% penicillin/streptomycin (Corning), 1% sodium pyruvate (Corning). Human THP1 cells were cultured in RPMI (Gibco), 10% FBS (J R Scientific), 1% Sodium pyruvate (Invitrogen), 1% Pen/Strep (Invitrogen), 1% Glutamax (Thermo Scientific), 0.1% 2-mercaptoethanol.
Cells were harvested after 48 h for RNA extraction. […] SYBR Green Mastermix (Thermo Scientific) was used for quantitative PCR. […]

CBX8 ChD = target: T1, CBX8 ChD (Homo sapiens, UniProt Q9HC52); experiment: Time-dependent fluorescence polarization displacement assay, CBX8 ChD; type: binding; details: Figure 5d, CBX8 ChD 2 µM, PBS pH 7
T1 construct: CBX chromodomain constructs (addgene plasmid #25158 (CBX2), and #62514 (CBX8, provided by Cheryl Arrowsmith)); 6His; host or cells: E. coli (BL21 CodonPlus RIL or Rosetta 2)
T1 sequence (Q9HC52 11-69 limits assumed): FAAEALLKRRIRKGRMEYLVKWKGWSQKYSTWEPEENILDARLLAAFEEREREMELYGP

CBX2 ChD = target: T2, CBX2 ChD (Homo sapiens, UniProt Q14781); experiment: Time-dependent fluorescence polarization displacement assay, CBX2 ChD; type: binding; details: for IC50: Figure 5d, CBX2 ChD 2 µM, probe 100 nM
T2 construct: CBX chromodomain constructs (addgene plasmid #25158 (CBX2), and #62514 (CBX8, provided by Cheryl Arrowsmith)); 6His; host or cells: E. coli (BL21 CodonPlus RIL or Rosetta 2)
T2 sequence (Q14781 12-70 limits assumed): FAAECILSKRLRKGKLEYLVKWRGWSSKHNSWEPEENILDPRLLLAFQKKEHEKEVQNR
Procedure: Observed masses are shown (expected average mass for CBX8 ChD = 8792 Da). The observed mass difference (913 Da) agrees with the expected mass change of 913 Da. b) Labeled protein was detected by gel shift on 16.5% Tris‐Tricine SDS‐PAGE. […] Gel analysis was conducted on a 2.5% agarose gel in 10 mM sodium borate buffer. […] Assays were conducted using SW2_113 as an FP probe (Figure S20) at 100 nM. All proteins were used at 2 µM in PBS (pH 7), 0.02% Tween 20. Error bars represent SD. […] (μM); no other compound label is printed beside the IC50 lines
2.2 Fluorescence Displacement Assay to Evaluate Time-dependent potency of Imine Covalent Inhibitors to CBX ChD. Fluorescence polarization (FP) was measured by titration of CBX ChDs (CBX8 ChD/CBX8 ChD Y39F/CBX2 ChD) to a fluoresceine-labelled probe as previously reported ^1. Fluorescence displacement assays were performed in black 384-well plates with optical bottoms. Buffer used in FP assays consists of 100 mM Na2HPO4, 150 mM NaCl, 0.02% Tween 20. […] Two-fold dilutions of covalent inhibitors were used, starting with 100 µM as highest peptide concentration to 0.049 µM as the lowest. Four replicates were tested at each concentration. Fluorescence anisotropy was read at different time points. Raw data were analyzed using GraphPad Prism 7 following a “one site-Fit logIC50” competition model with any outliers (95 % confidence interval) being excluded.
Time-dependent fluorescence displacement assay Fluorescence polarization (FP) was measured by titration of CBX ChDs (CBX8 ChD/CBX8 ChD Y39F/CBX2 ChD) to a fluorescein-labelled probe as previously reported.^8 Fluorescence displacement assays were performed in black 384-well plates with optical bottoms. Buffer used in FP assays consists of 100 mM Na2HPO4, 150 mM NaCl, 0.02% Tween 20. […] Fluorescence anisotropy was read at different time points. […] Raw data were analyzed using GraphPad Prism 7 following a “one site-Fit logIC50” competition model with any outliers (95 % confidence interval) being excluded.

[2] = Stability of warheads and inhibitors (solid, PBS, hydrolysis); type: physicochemical; details: 24 h in aqueous buffer, then sodium cyanoborohydride, mass spectrometry
Procedure: To be suitable for chemical probe and therapeutic applications, the warhead should show good stability. In general, we found the iminolactam warheads to be quite stable. Compound 1 was stable as a solid at room temperature for over 3 months. […] After 24‐h in aqueous buffer, compounds were treated with sodium cyanoborohydride. […] The synthetic strategy of in situ formation of imines by periodate treatment was pursued to avoid concerns of warhead reactivity with the ligand itself to either the peptide backbone or the phenoxyphenyl aryl group. This appears to have been unnecessary, at least for the iminolactam warhead. […] The more reactive ester imine may be forming semi‐stable cyclized products with the amide backbone, which have been observed previously with peptide aldehydes.^[ [51], [52] ^] Due to these issues, we selected compound P1b for further characterization.

- IC50 (CBX8 ChD; SW2_113 probe 100 nM, read-out: IC50 at time 0): 9.9 µM
- IC50 (CBX8 ChD; IC50 at 20 h, probe 100 nM): 2 µM
- IC50 (CBX2 ChD; read-out: IC50 at time 0): 17 µM
- IC50 (CBX2 ChD; IC50 at 20 h): 15 µM
- change in potency in time‐dependent FP assay (CBX2 ChD; binding to CBX2): no change in potency
- stability to long‐term incubation in PBS [2]: stability over the 24 h
SMILES: CC[C@H](C)[C@H](NC(=O)[C@@H](NC(=O)c1ccc(Oc2ccccc2)cc1)C1CCCC1)C(=O)N[C@@H](CCCCN(CC)CCCCCCN1CCN=CC1=O)C(=O)N[C@@H](CO)C(N)=O [P1b]
- reduction of HOXA9 gene expression (in words) [1]: most effective at reducing HOXA9 gene expression
